Key:
Type in all cases: physicochemical
[1] = Dimensions (size, PDI) of DNPs co-assembled from IAJDs and Luc-mRNA by DLS
Procedure: Dynamic Light Scattering (DLS) for the DNPs was performed in buffer with a Malvern Instruments particle sizer (Zetasizer Nano S, Malvern Instruments, UK) equipped with 4 mW He—Ne laser 633 nm and avalanche photodiode positioned at […] to the beam and temperature-controlled cuvette holder. Instrument parameters were determined automatically along with measurement times.
Formulation of DNPs Containing mRNA-Luc: IAJDs were dissolved in ethanol with various initial concentrations (5-160 mg/mL). Nucleoside-modified mRNA encoding firefly luciferase (mRNA-Luc) was dissolved in water with various initial concentrations (1-4 mg/mL). 12.5 μL of mRNA solution was placed into a clean RNAs free eppendorf (1.5 mL) and mixed with 463 μL of citrate buffer (10 mM, pH 3.0)/acetate buffer (10 mM). For encapsulation of mRNA into IAJDs, 25 μL of IAJDs of the ethanol stock solution was rapidly injected into mRNA solution in citrate or acetate buffer followed by vortex for 5 seconds.
Dynamic Light Scattering (DLS) for the sizes and polydispersities of DNPs was performed on a Malvern Instruments particle sizer (Zetasizer Nano S, Malvern Instruments, UK) equipped with 4 mW He—Ne laser 633 nm and avalanche photodiode positioned at […] to the beam and temperature-controlled cuvette holder. Instrument parameters were determined automatically along with measurement times. Sample solution (0.4 mL) was placed in a semi-micro cuvette (1.6 mL, polystyrene, 10×10×45 mm, manufactured by Greiner Bio-One) and the measurements were performed at 23° C.
Formulation of DNPs obtained by co-assembly of IAJDs and Luc-mRNA was performed as follows. IAJDs were dissolved in ethanol with an initial concentration of 80 mg/mL. Nucleoside-modified mRNA encoding firefly luciferase (Luc-mRNA) was dissolved in UltraPure DNase/RNase-free distilled water with an initial concentration of 4.0 mg/mL. 12.5 μL of Luc-mRNA solution was placed into a clean RNAs free eppendorf (1.5 mL) and 463 μL acetate buffer (10 mM, pH 4.0) was added. Then, 25 μL of IAJD in the ethanol stock solution was rapidly injected into the Luc-mRNA solution in acetate buffer followed by vortex for 5 seconds.
Dynamic Light Scattering (DLS) for the dimensions (sizes and polydispersities) of DNPs was performed on a Malvern Instruments particle sizer (Zetasizer Nano S, Malvern Instruments, UK) equipped with 4 mW He—Ne laser 633 nm and avalanche photodiode positioned at 175° to the beam and temperature-controlled cuvette holder. Instrument parameters were set up automatically along with measurement times. Sample solution (c.a. 0.4 mL) was placed in a semi-micro cuvette (1.6 mL, polystyrene, 10×10×45 mm, Greiner Bio-One) and the measurements were performed at 23° C.
Formulation of DNPs Co-assembled from IAJDs and Luc-mRNA: nucleoside-modified mRNA encoding firefly luciferase (Luc-mRNA) was dissolved in UltraPure DNase/RNase-free distilled water with an initial concentration of 4.0 mg/mL. IAJD molecules were dissolved in ethanol with an initial concentration of 80 mg/mL. 12.5 μL of Luc-mRNA solution was taken and placed into a clean RNAs free eppendorf (1.5 mL). Then 463 μL of acetate buffer (10 mM, pH 4.0) was added. Afterwards, 25 μL of IAJD in the ethanol stock solution was taken and rapidly injected into the above Luc-mRNA solution in acetate buffer followed by vortex for 5 seconds.

[2] = pKa measurements of individual IAJD molecules by titration; conditions: ethanol saturated with NaCl, titrated with 0.1 M aqueous HCl, titration
Procedure: pKa measurements of individual IAJD Molecules was performed as follows. IAJD Molecules were first dissolved in ethanol (Sat. with NaCl) at a concentration of 1.5 mg/mL and the solution volume was 3 mL.
Then 0.1 M HCl solution was added to the above ethanol solution with an increment of 7.5 μL. The resulting pH after each addition of HCl solution was measured by an Thermo Scientific Orion Star A121 meter with Thermo Scientific Orion 8220BNWP pH probe. pKa was determined using the half equivalence point titration.

[3] = Stability of DNPs by DLS after storage at 5° C.; design: key to Original size distribution type (DLS curve) / Size distribution type (DLS curve): U: DLS curve showed unimodal size distribution; B: DLS curve showed bimodal size distribution; M: DLS curve showed multimodal size distribution; conditions: for pH Sample: DNPs: IAJD 4.0 mg/mL + Luc-mRNA 0.1 mg/mL, injection in acetate buffer pH 4.00; for PDI / Size (d, nm) / Original size distribution type (DLS curve): IAJD 4.0 mg/mL + Luc-mRNA 0.1 mg/mL; for PDI / Size (d, nm): acetate buffer; for Original size distribution type (DLS curve): before storage, acetate buffer pH 4.00
Procedure: The stability of the DNPs as assayed by DLS. All the samples are prepared in acetate buffer. The stabilities of the constructs were ranked: Excellent (in bold)—the original sizes and distribution remains almost the same after storage; Good—the original relatively big sizes became smaller or broad size distribution became narrower; Not stable—the original relatively big sizes or broad size distribution remained almost the similar level, or the original relatively small sizes became bigger or narrow size distribution became broader.

[4] = Acetate buffer 10 mM pH 4.0, CIAJD 4 mg/mL, CLuc-mRNA 0.05 mg/mL
[5] = Acetate buffer 10 mM pH 5.2, CIAJD 4 mg/mL, CLuc-mRNA 0.10 mg/mL
[6] = Citrate buffer 10 mM pH 3.0, CIAJD 4 mg/mL, CLuc-mRNA 0.05 mg/mL
[7] = DNP for in vivo, CIAJD 4.0 mg/mL, CLuc-mRNA 0.1 mg/mL, acetate buffer pH 5.2
[8] = Table 12, DNPs, IAJD 4 mg/mL + Luc-mRNA 0.10 mg/mL, acetate buffer 10 mM pH 4.0
[9] = Table 13, DNPs, IAJD 4 mg/mL + Luc-mRNA 0.10 mg/mL, acetate buffer pH 4.0
[10] = Table 14, DNPs, IAJD 4 mg/mL + Luc-mRNA 0.10 mg/mL, acetate buffer pH 4.0
[11] = Table 16, DNPs from IAJD 4 mg/mL and Luc-mRNA 0.10 mg/mL by injection in acetate buffer (10 mM, pH 4.0)
[12] = Table 17, DNPs used in vivo, IAJD 4 mg/mL, Luc-mRNA 0.10 mg/mL, acetate pH 4.0
[13] = Acetate buffer 10 mM pH 4.0, CIAJD 4 mg/mL, CLuc-mRNA 0.10 mg/mL
[14] = DNP for in vivo, CIAJD 4.0 mg/mL, CLuc-mRNA 0.1 mg/mL, acetate buffer pH 4.0
[15] = storage time 2 days, CIAJD 4.0 mg/mL, CLuc-mRNA 0.1 mg/mL, acetate buffer pH 4.0

Compound | PDI [1, 11] | Size (d, nm) [1, 11] | PDI [1, 12] | Size (d, nm) [1, 12] | pH Sample [3] | Original size distribution type (DLS curve) [3] | pKa ([2]; individual IAJD molecules) | Size distribution type (DLS curve) ([3]; after 19 days at 5° C.) | PDI ([3]; after 19 days at 5° C.) | Size (d, nm) ([3]; after 19 days at 5° C.) | further results
3,5-Bis(dodecyloxy)benzyl 3-(4-methylpiperazin-1-yl)propanoate [IAJD 84] |  |  |  |  |  |  |  |  |  |  | PDI [1, 4]: 0.493; Size (d, nm) [1, 4]: 106 nm; PDI [1, 5]: 0.311; Size (d, nm) [1, 5]: 199 nm; PDI [1, 6]: 0.283; Size (d, nm) [1, 6]: 192 nm; PDI [1, 7]: 0.311; Size (d, nm) [1, 7]: 199 nm
CCCCCCCCCCCCOc1cc(COC(=O)CCCN2CCCCC2)cc(OCCCCCCCCCCCC)c1 [IAJD 65, 3,5-Bis(dodecyloxy)benzyl 4-(piperidin-1-yl)butanoate] |  |  |  |  |  |  |  |  |  |  | PDI [1, 8]: 0.249; Size (d, nm) [1, 8]: 241 nm; PDI [1, 9]: 0.249; Size (d, nm) [1, 9]: 241 nm; PDI [1, 10]: 0.249; Size (d, nm) [1, 10]: 241 nm; pKa ([2]; Table 15, individual IAJD molecule): 7.4
CCCCCCCCCCCCOc1cc(COC(=O)c2cc(OCCOCCOCCCC(=O)CCCN3CCCCC3)c(OCCOCCOCCOCc3ccccc3)c(OCCOCCOCCOC(=O)CCCN3CCCCC3)c2)cc(OCCCCCCCCCCCC)c1 [IAJD 110] | 0.274 | 111 nm | 0.274 | 111 nm | 4.91 | (U) | 7.64 |  |  |  | Size distribution type (DLS curve) ([3]; after 75 days at 5° C.): (U); PDI ([3]; after 75 days at 5° C.): 0.222; Size (d, nm) ([3]; after 75 days at 5° C.): 103 nm
CCCCCCCCCCCCCCOc1cc(COC(=O)c2cc(OCCOCCOCCCC(=O)CCCN3CCCCC3)c(OCCOCCOCCOCc3ccccc3)c(OCCOCCOCCOC(=O)CCCN3CCCCC3)c2)cc(OCCCCCCCCCCC)c1 [IAJD 156] | 0.236 | 75 nm | 0.236 | 75 nm | 4.82 | (U) | 7.43 | (U) | 0.242 | 78 nm | 
CCCCCCCCCCCCCCCOc1cc(COC(=O)c2cc(OCCOCCOCCCC(=O)CCCN3CCCCC3)c(OCCOCCOCCOCc3ccccc3)c(OCCOCCOCCOC(=O)CCCN3CCCCC3)c2)cc(OCCCCCCCCCCC)c1 [IAJD 157] | 0.238 | 68 nm | 0.238 | 68 nm | 4.84 | (U) | 7.42 | (U) | 0.255 | 71 nm | 
CCCCCCCCCCCCCCCCCOc1cc(COC(=O)c2cc(OCCOCCOCCCC(=O)CCCN3CCCCC3)c(OCCOCCOCCOCc3ccccc3)c(OCCOCCOCCOC(=O)CCCN3CCCCC3)c2)cc(OCCCCCCCCCCC)c1 [IAJD 158] | 0.246 | 75 nm | 0.246 | 75 nm | 4.83 | (U) | 7.38 | (U) | 0.258 | 77 nm | 
CCCCCCCCCCCCCCCCCOc1cc(CNC(=O)c2cc(OCCOCCOCCOC(=O)CCCN3CCCCC3)c(OCCCOCOCCOCc3ccccc3)c(OCCOCCOCCOC(=O)CCCN3CCCCC3)c2)cc(OCCCCCCCCCCCCCCCCC)c1 [IAJD 159] | 0.218 | 91 nm | 0.218 | 91 nm | 4.72 | (U) | 7.4 |  |  |  | Size distribution type (DLS curve) ([3]; after 11 days at 5° C.): (U); PDI ([3]; after 11 days at 5° C.): 0.220; Size (d, nm) ([3]; after 11 days at 5° C.): 93 nm
Diheptyl 5,5′-((5-(((4-(4-methylpiperazin-1-yl)butanoyl)oxy)methyl)-1,3-phenylene)bis(oxy)) dipentanoate [IAJD 85] |  |  |  |  |  |  |  |  |  |  | PDI [1, 4]: 0.352; Size (d, nm) [1, 4]: 99 nm; PDI [1, 13]: 0.254; Size (d, nm) [1, 13]: 115 nm; PDI [1, 6]: 0.361; PDI [1, 14]: 0.254; Size (d, nm) [1, 14]: 115 nm; PDI after storage [3, 15]: 0.271; Size (d, nm) after storage [3, 15]: 114 nm

Source: patent US20240252677A1, “ONE-COMPONENT DELIVERY SYSTEM FOR NUCLEIC ACIDS” (The Trustees of the University of Pennsylvania, priority 2021, published 2024)
